{"source": "paper PMC10376059", "about": "“New NADPH Oxidase 2 Inhibitors Display Potent Activity against Oxidative Stress by Targeting p22^phox-p47^phox Interactions” (Antioxidants, 2023)", "key": {"[1]": {"assay": "MTT cytotoxicity assay", "assay_type": "cell-based, human", "settings": "human; neutrophil-differentiated HL-60 cells, 72 h, 100 µM", "method": "To verify the cytotoxicity of the acrylonitrile derivatives, the MTT reduction method was performed. Briefly, HL-60 cells were seeded in a flat-bottomed 96-well plate at a density of 10,000 cells per well. […] In a second series of experiments, cells were incubated under the same conditions but for 72 h. Etoposide was used as a positive control. Ten μL of MTT was added at a final concentration of 0.5 mg/mL, incubated at 37 °C for 4 h, and then solubilized with 10% SDS in 0.1 mM HCl and incubated overnight at 37 °C. Finally, a blue-colored compound (formazan) formation was measured at 570 nm in a multiplate reader (StatFax 4200, Awareness Technology, Inc., Palm City, FL, USA). The viability percentage was obtained as follows: Viability % = [treated cells DO × 100]/[DO cells control]."}, "[2]": {"biological_target": "T1, p47^phox (Homo sapiens, UniProt P14598)", "T1 construct": "we evaluated p47^phox translocation from the cytosol to the membrane in HL-60 differentiated cells; endogenous in cells; host or cells: neutrophil-differentiated HL-60 cells treated with PMA; membrane and cytosolic fractions obtained by cryo-fracture", "T1 sequence (P14598 1-390)": "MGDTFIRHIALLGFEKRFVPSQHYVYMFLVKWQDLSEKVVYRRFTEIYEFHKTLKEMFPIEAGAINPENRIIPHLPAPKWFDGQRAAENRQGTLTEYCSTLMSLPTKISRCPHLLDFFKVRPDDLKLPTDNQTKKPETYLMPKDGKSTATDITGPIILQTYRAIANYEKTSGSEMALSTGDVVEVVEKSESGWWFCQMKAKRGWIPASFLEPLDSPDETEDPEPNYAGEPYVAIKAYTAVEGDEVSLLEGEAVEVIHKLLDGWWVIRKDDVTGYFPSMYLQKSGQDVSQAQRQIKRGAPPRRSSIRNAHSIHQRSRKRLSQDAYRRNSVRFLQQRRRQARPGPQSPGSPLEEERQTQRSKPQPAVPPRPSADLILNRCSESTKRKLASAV", "assay": "p47phox translocation from cytosol to membrane (Western blot) in PMA-stimulated HL-60 differentiated cells", "assay_type": "cell-based", "settings": "PMA 0.8 µM, 50 μM", "method": "Neutrophil-differentiated HL-60 cells (2 × 10^6 cells/mL) were incubated at 37 °C in a humid atmosphere with 5% CO2 and 50 μM of the different acrylonitrile compounds, then PMA 0.8 μM was added and incubated for 1 h to induce the activation of the enzyme NADPH oxidase. As a positive inhibition control, VAS2870 (20 μM) was used. Another two controls were performed: one with cells activated by PMA in the presence of DMSO, and the other (NA, non-activated) with cells in the absence of PMA and the acrylonitrile compounds. In 15 mL conical tubes, 5 mL of cell suspension from each treatment and control condition was transferred at 2 × 10^6 cells/mL and centrifuged at 1000 rpm at 4 °C for 10 min. The supernatant was then discarded, and each pellet was re-suspended in 2 mL of a 4% PBS solution with 2 mM EGTA and 0.25 mM PMSF frozen at −80 °C for 10 min. Then each pellet was thawed on ice. After this, the cell suspension was passed through a glass tissue homogenizer (Deltalab®, I.C.T, S.L, La Rioja, Spain) 20 times. The freezing-thawing and homogenization processes were repeated three times. Finally, the homogenate was centrifuged at 15,000 rpm at 4 °C for 15 min. The supernatant (cytosolic fraction) was removed from the pellet (membranes were prepared). A fraction was removed for the determination of total proteins, and the remainder was stored at −80 °C for further analysis. […]"}}}
{"compound": "N#C/C(=C\\c1cc(-c2ccccc2)on1)C(=O)c1c[nH]c2ccccc12", "note": "[Compound C6]", "values": [{"measurement": "viability at 72 h, 100 µM", "setting": "[1]", "result": "~5", "unit": "%"}, {"measurement": "translocation of p47phox to the membrane (in words)", "setting": "[2]", "result": "significantly reduced the translocation of p47^phox to the membrane"}]}
